Read-outs that look alike come from different tables or passages of the source. Where only a bound is given, the exact number is not on record here.

22 molecules from US11504382B2, “Tricyclic inhibitors of Hepatitis B virus” (Antios Therapeutics, Inc., priority 2018, dated 2022) can be followed below.

This assay relates to HBV. The assay is described as follows: HBV inhibition assay in HepAD38 cells (extracellular HBV DNA by direct qPCR). The format is cell-based, Hepatitis B virus. The following applies: 96 hours; for EC50: 8-point dose-response curve, read-out: HBV inh EC50; for inhibition at 0.05 µM / inhibition at 0.1 µM: read-out: Anti HBV Activity (conc μM). In general terms: Quantitative PCR measures a nucleic acid by following its amplification.

[1] abbreviates: Hepatitis B virus, relative to non-treated reference.
Setting [2] is: Hepatitis B virus, 0.1 μM, relative to non-treated reference.

What is called EC50 is the concentration that produces a half-maximal response. `Cc1cc(NC(=O)c2c3c(cn2C)S(=O)(=O)NC2CCN(C(=O)C4(C)CCCO4)CC2CO3)ccc1F` (racemic) [Example E132, Trans-N-(4-fluoro-3-methylphenyl)-2-methyl-8-(2-methyltetrahydrofuran-2-carbonyl)-5,5a,6,7,8,9,9a,10-octahydro-2H-pyrido[4,3-f]pyrrolo[3,4-b][1,4,5]oxathiazocine-1-carboxamide 4,4-dioxide]: the EC50 is less than 1000 nM.

In the case of `Cc1cc(NC(=O)c2c3c(cn2C)S(=O)(=O)NC2CCN(C(=O)C45CC(CO4)C5)CC2CO3)ccc1F` (racemic) [Example E133, Trans-8-(2-oxabicyclo[2.1.1]hexane-1-carbonyl)-N-(4-fluoro-3-methylphenyl)-2-methyl-5,5a,6,7,8,9,9a,10-octahydro-2H-pyrido[4,3-f]pyrrolo[3,4-b][1,4,5]oxathiazocine-1-carboxamide 4,4-dioxide], the EC50 was less than 1000 nM.

For `Cc1cc(NC(=O)c2c3c(cn2C)S(=O)(=O)NC2CCN(C(=O)c4ncoc4C)CC2CO3)ccc1F` (racemic) [Example E134, Trans-N-(4-fluoro-3-methylphenyl)-2-methyl-8-(5-methyloxazole-4-carbonyl)-5,5a,6,7,8,9,9a,10-octahydro-2H-pyrido[4,3-f]pyrrolo[3,4-b][1,4,5]oxathiazocine-1-carboxamide 4,4-dioxide], under “Hepatitis B virus”, the concentration giving a half-maximal response (EC50) is less than 1000 nM.

Regarding `Cc1nnc(C(=O)N2CCC3COc4c(cn(C)c4C(=O)Nc4ccc(F)c(C)c4)S(=O)(=O)NC3C2)o1` (racemic) [Example E135, Cis-N-(4-fluoro-3-methylphenyl)-2-methyl-7-(5-methyl-1,3,4-oxadiazole-2-carbonyl)-5,5a,6,7,8,9,9a,10-octahydro-2H-pyrido[3,4-f]pyrrolo[3,4-b][1,4,5]oxathiazocine-1-carboxamide 4,4-dioxide], the 50% effective concentration (EC50) (Hepatitis B virus) was less than 1000 nM.

For `Cc1cc(NC(=O)c2c3c(cn2C)S(=O)(=O)NC2CN(C(=O)C4(C)COC4)CCC2CO3)ccc1F` (racemic) [Example E136, Cis-N-(4-fluoro-3-methylphenyl)-2-methyl-7-(3-methyloxetane-3-carbonyl)-5,5a,6,7,8,9,9a,10-octahydro-2H-pyrido[3,4-f]pyrrolo[3,4-b][1,4,5]oxathiazocine-1-carboxamide 4,4-dioxide], the concentration giving a half-maximal response (EC50) (Hepatitis B virus) was less than 1000 nM.

In the case of `Cc1cc(NC(=O)c2c3c(cn2C)S(=O)(=O)NC2CN(C(=O)C45CC(CO4)C5)CCC2CO3)ccc1F` (racemic) [Example E138, Cis-7-(2-oxabicyclo[2.1.1]hexane-1-carbonyl)-N-(4-fluoro-3-methylphenyl)-2-methyl-5,5a,6,7,8,9,9a,10-octahydro-2H-pyrido[3,4-f]pyrrolo[3,4-b][1,4,5]oxathiazocine-1-carboxamide 4,4-dioxide], under “Hepatitis B virus”, the 50% effective concentration (EC50) is less than 1000 nM.

Consider `Cc1cc(NC(=O)c2c3c(cn2C)S(=O)(=O)NC2CN(C(=O)c4ncoc4C)CCC2CO3)ccc1F` (racemic) [Example E139, Cis-N-(4-fluoro-3-methylphenyl)-2-methyl-7-(5-methyloxazole-4-carbonyl)-5,5a,6,7,8,9,9a,10-octahydro-2H-pyrido[3,4-f]pyrrolo[3,4-b][1,4,5]oxathiazocine-1-carboxamide 4,4-dioxide], for which the EC50 (Hepatitis B virus) was less than 1000 nM.

`Cc1cc(NC(=O)c2c3c(cn2C)S(=O)(=O)NC2CN(C(=O)C4(C)COC4)CCC2CO3)ccc1F` (racemic) [Example E141, Trans-N-(4-fluoro-3-methylphenyl)-2-methyl-7-(3-methyloxetane-3-carbonyl)-5,5a,6,7,8,9,9a,10-octahydro-2H-pyrido[3,4-f]pyrrolo[3,4-b][1,4,5]oxathiazocine-1-carboxamide 4,4-dioxide]: the EC50 was less than 1000 nM.

As for `Cc1cc(NC(=O)c2c3c(cn2C)S(=O)(=O)NC2CN(C(=O)C45CC(CO4)C5)CCC2CO3)ccc1F` (racemic) [Example E143, Trans-7-(2-oxabicyclo[2.1.1]hexane-1-carbonyl)-N-(4-fluoro-3-methylphenyl)-2-methyl-5,5a,6,7,8,9,9a,10-octahydro-2H-pyrido[3,4-f]pyrrolo[3,4-b][1,4,5]oxathiazocine-1-carboxamide 4,4-dioxide], the EC50 is less than 1000 nM.

With `Cc1cc(NC(=O)c2c3c(cn2C)S(=O)(=O)NC2CN(C(=O)c4ncoc4C)CCC2CO3)ccc1F` (racemic) [Example E144, Trans-N-(4-fluoro-3-methylphenyl)-2-methyl-7-(5-methyloxazole-4-carbonyl)-5,5a,6,7,8,9,9a,10-octahydro-2H-pyrido[3,4-f]pyrrolo[3,4-b][1,4,5]oxathiazocine-1-carboxamide 4,4-dioxide], the 50% effective concentration (EC50) was less than 1000 nM.

Take `Cn1cc2c(c1C(=O)Nc1cc(F)c(F)c(F)c1)OC[C@H]1CN(C(=O)c3ncco3)C[C@H]1NS2(=O)=O` (relative stereo) [Example E50, cis-7-methyl-2-(oxazole-2-carbonyl)-N-(3,4,5-trifluorophenyl)-2,3,3a,4,10,10a-hexahydro-1H,7H-dipyrrolo[3,4-b:3′,4′-f][1,4,5]oxathiazocine-8-carboxamide 5,5-dioxide]: under setting [1], the inhibition at 0.05 µM was more than 50%. Moreover, the half-maximal effective concentration (EC50) (Hepatitis B virus) was less than 1000 nM.

`Cc1cc(NC(=O)c2c3c(cn2C)S(=O)(=O)N[C@@H]2CN(C(=O)c4ccncc4)C[C@@H]2CO3)ccc1F` (relative stereo) [Example E55, cis-N-(4-fluoro-3-methylphenyl)-2-isonicotinoyl-7-methyl-2,3,3a,4,10,10a-hexahydro-1H,7H-dipyrrolo[3,4-b:3′,4′-f][1,4,5]oxathiazocine-8-carboxamide 5,5-dioxide]: the inhibition at 0.1 µM under setting [2] was more than 50%.

For `Cc1nnc(C(=O)N2C[C@@H]3COc4c(cn(C)c4C(=O)Nc4ccc(F)c(C)c4)S(=O)(=O)N[C@@H]3C2)s1` (relative stereo) [Example E62, cis-N-(4-fluoro-3-methylphenyl)-7-methyl-2-(5-methyl-1,3,4-thiadiazole-2-carbonyl)-2,3,3a,4,10,10a-hexahydro-1H,7H-dipyrrolo[3,4-b:3′,4′-f][1,4,5]oxathiazocine-8-carboxamide 5,5-dioxide], the half-maximal effective concentration (EC50) (Hepatitis B virus) is less than 1000 nM.

For the molecule `Cn1cc2c(c1C(=O)Nc1cc(F)c(F)c(F)c1)OC[C@H]1CN(C(=O)COP(=O)(O)O)C[C@H]1NS2(=O)=O` (relative stereo) [Example E72, cis-2-(7-methyl-5,5-dioxido-8-((3,4,5-trifluorophenyl)carbamoyl)-3a,4,10,10a-tetrahydro-1H,7H-dipyrrolo[3,4-b:3′,4′-f][1,4,5]oxathiazocin-2(3H)-yl)-2-oxoethyl Dihydrogen Phosphate], the inhibition at 0.1 µM under setting [2] was less than 50%.

On to `Cn1cc2c(c1C(=O)Nc1cc(F)c(F)c(F)c1)OC[C@H]1CN(c3ncc(O)cn3)C[C@H]1NS2(=O)=O` (relative stereo) [Example E84, cis-2-(5-hydroxypyrimidin-2-yl)-7-methyl-N-(3,4,5-trifluorophenyl)-2,3,3a,4,10,10a-hexahydro-1H,7H-dipyrrolo[3,4-b:3′,4′-f][1,4,5]oxathiazocine-8-carboxamide 5,5-dioxide], for which the EC50 (Hepatitis B virus) is less than 1000 nM.

In the case of `CCOC(=O)N1C[C@H]2NS(=O)(=O)c3cn(C)c(C(=O)Nc4cc(F)c(F)c(F)c4)c3OC[C@@]2(C)C1` (relative stereo) [Example E85, cis-ethyl 7,10a-dimethyl-8-((3,4,5-trifluorophenyl)carbamoyl)-3a,4,10,10a-tetrahydro-1H,7H-dipyrrolo[3,4-b:3′,4′-f][1,4,5]oxathiazocine-2(3H)-carboxylate 5,5-dioxide], under setting [1], the inhibition at 0.05 µM was more than 50%.

Consider `Cc1cc(NC(=O)c2c3c(cn2C)S(=O)(=O)N[C@@H]2CCN(C(=O)C4(C)COC4)C[C@H]2CO3)ccc1F` (relative stereo) [Example E131, Trans-N-(4-fluoro-3-methylphenyl)-2-methyl-8-(3-methyloxetane-3-carbonyl)-5,5a,6,7,8,9,9a,10-octahydro-2H-pyrido[4,3-f]pyrrolo[3,4-b][1,4,5]oxathiazocine-1-carboxamide 4,4-dioxide], for which the EC50 (Hepatitis B virus) is less than 1000 nM.

As to `Cc1nnc(C(=O)N2CC[C@H]3COc4c(cn(C)c4C(=O)Nc4ccc(F)c(C)c4)S(=O)(=O)N[C@@H]3C2)o1` (relative stereo) [Example E140, Trans-N-(4-fluoro-3-methylphenyl)-2-methyl-7-(5-methyl-1,3,4-oxadiazole-2-carbonyl)-5,5a,6,7,8,9,9a,10-octahydro-2H-pyrido[3,4-f]pyrrolo[3,4-b][1,4,5]oxathiazocine-1-carboxamide 4,4-dioxide], the EC50 (Hepatitis B virus) is less than 1000 nM.

Consider `Cc1nnc(C(=O)N2C[C@H]3COc4c(cn(C)c4C(=O)Nc4ccc(F)c(C)c4)S(=O)(=O)N[C@@H]3C2)o1` (relative stereo) [Example E146, Trans-N-(4-fluoro-3-methylphenyl)-7-methyl-2-(5-methyl-1,3,4-oxadiazole-2-carbonyl)-2,3,3a,4,10,10a-hexahydro-1H,7H-dipyrrolo[3,4-b:3′,4′-f][1,4,5]oxathiazocine-8-carboxamide 5,5-dioxide], for which the EC50 (Hepatitis B virus) is less than 1000 nM.

Regarding `Cn1cc2c(c1C(=O)Nc1ccc(F)c(F)c1)OC[C@H]1NCC[C@H]1NS2(=O)=O` (single isomer, unassigned) [Example E25], under setting [2], the inhibition at 0.1 µM was less than 50%.

As to `CNC(=O)N1CC[C@H]2NS(=O)(=O)c3cn(C)c(C(=O)Nc4ccc(F)c(F)c4)c3OC[C@H]21` (single isomer, unassigned) [Example E26], under setting [2], the inhibition at 0.1 µM is less than 50%.

`Cn1cc2c(c1C(=O)Nc1ccc(F)c(F)c1)OCC1CCCC1NS2(=O)=O` (single isomer, unassigned) [Example E34, N-(3,4-difluorophenyl)-2-methyl-5a,6,7,8,8a,9-hexahydro-2H,5H-cyclopenta[f]pyrrolo[3,4-b][1,4,5]oxathiazocine-1-carboxamide 4,4-dioxide (Chiral 5aS,8aR or 5aR,8aS - Stereochemistry unknown)]: the “Anti HBV Activity (conc μM)” value (0.1 μM, relative to non-treated reference) is “B (0.1) (HBV inhibition less than 50% at the concentration indicated in the table)”.
